According to BindingDB's records for PubMed 7562497 (R. W. Johnson Pharmaceutical Research Institute, 1995):
“And” between values parts separate entries of the source, which are not always exact repeats. Equal entries are not always repeated.

Key:
[1] = molecular target: Norepinephrine transporter (Rattus norvegicus, UniProt Q9JIA2)
Mu-type opioid receptor = Mu-type opioid receptor (Rattus norvegicus, UniProt P33535)
[2] = molecular target: Sodium-dependent serotonin transporter (Rattus norvegicus, UniProt P31652)
Sequence of Sodium-dependent serotonin transporter (P31652 whole entry): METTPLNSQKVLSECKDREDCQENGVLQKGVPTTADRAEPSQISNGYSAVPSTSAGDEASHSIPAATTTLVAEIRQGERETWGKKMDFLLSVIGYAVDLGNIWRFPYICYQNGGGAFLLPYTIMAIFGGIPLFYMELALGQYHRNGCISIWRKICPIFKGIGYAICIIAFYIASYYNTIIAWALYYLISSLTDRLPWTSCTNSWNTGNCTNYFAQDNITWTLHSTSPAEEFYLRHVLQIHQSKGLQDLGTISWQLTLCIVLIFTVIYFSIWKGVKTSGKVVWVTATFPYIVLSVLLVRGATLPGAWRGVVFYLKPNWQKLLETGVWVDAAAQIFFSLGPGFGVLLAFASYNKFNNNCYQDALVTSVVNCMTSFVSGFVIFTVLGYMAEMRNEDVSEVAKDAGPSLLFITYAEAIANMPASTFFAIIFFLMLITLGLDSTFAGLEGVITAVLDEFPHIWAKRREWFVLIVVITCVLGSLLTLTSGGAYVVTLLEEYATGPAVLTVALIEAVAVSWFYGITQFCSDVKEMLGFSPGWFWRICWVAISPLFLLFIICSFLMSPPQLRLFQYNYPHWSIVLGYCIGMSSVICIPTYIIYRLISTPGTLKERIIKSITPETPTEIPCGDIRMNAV

[3] = molecular target: Kappa-type opioid receptor (Rattus norvegicus, UniProt P34975)
Sequence of Kappa-type opioid receptor (P34975 whole entry): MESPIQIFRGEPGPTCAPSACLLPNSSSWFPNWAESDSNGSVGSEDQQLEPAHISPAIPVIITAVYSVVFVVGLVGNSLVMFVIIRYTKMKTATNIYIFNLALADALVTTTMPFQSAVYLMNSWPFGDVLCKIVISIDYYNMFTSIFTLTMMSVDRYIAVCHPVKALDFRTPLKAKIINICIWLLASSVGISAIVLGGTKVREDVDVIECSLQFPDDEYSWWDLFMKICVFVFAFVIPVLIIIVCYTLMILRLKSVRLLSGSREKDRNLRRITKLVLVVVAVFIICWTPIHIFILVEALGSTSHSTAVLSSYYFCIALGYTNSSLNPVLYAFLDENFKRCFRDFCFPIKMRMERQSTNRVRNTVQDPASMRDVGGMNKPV

Sequence of Mu-type opioid receptor (P33535 whole entry): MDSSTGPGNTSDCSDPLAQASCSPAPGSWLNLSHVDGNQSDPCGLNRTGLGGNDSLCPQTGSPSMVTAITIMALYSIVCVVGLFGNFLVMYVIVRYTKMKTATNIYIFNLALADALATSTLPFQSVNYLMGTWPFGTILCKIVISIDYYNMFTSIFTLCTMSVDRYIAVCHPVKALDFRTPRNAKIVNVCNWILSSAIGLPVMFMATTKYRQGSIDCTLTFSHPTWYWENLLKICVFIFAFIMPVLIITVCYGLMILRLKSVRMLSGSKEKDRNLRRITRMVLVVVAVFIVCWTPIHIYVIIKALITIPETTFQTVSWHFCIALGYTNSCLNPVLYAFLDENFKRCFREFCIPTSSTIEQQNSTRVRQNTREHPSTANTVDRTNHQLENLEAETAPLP

Row | Compound | Ki [1] | Ki (Mu-type opioid receptor) | Ki [2] | Ki [3] [µM]
1 | COc1ccc2c(c1)C13CCCCC1C(C2)N(C)CC3 (stereo not drawn) [Levomethorpan] | 0.24 µM and 0.179 µM | – | – | –
2 | CCC(=O)O[C@](Cc1ccccc1)(c1ccccc1)[C@H](C)CN(C)C [PROPOXYPHENE] | > 10 µM | 0.0345 µM | > 10 µM | 1.22
3 | CO[C@@]12CC[C@@]3(C[C@@H]1[C@@](C)(O)C(C)(C)C)[C@H]1Cc4ccc(O)c5c4[C@@]3(CCN1CC1CC1)[C@H]2O5 [BUPRENORPHINE] | > 10 µM | – | > 10 µM | –
4 | C[C@@H](NC(=O)[C@@H](N)Cc1ccc(O)cc1)C(=O)NCC(=O)N(C)[C@@H](Cc1ccccc1)C(=O)NCCO [[tyrosyl-3,5-3H(N)]-D-Ala2-Mephe4-glyol5-enkephalin] | > 10 µM | – | > 10 µM | 0.21
5 | C=CCN1CC[C@]23c4c5ccc(O)c4O[C@H]2C(=O)CC[C@@]3(O)[C@H]1C5 [[17-(2,3-3H-2-propenyl)]-4,5a-epoxy-3,14-dihydroxymorphinan-6-one] | > 10 µM | – | > 10 µM | –
6 | COc1ccc2c3c1OC1C(O[Si](C)(C)C)C=CC4C(C2)N(C)CCC341 (stereo not drawn) [CAS_553916] | > 10 µM | 0.0111 µM | > 10 µM | 0.501
7 | COc1ccc2c3c1O[C@H]1C(=O)CCC4(O)[C@@H](C2)N(C)CC[C@]314 (stereo partly drawn) [Oxycodone] | > 10 µM | – | > 10 µM | –
8 | c1cc2c(c(NC3=NCCN3)c1)CCCC2 [NSC_19472] | 0.785 µM and 2.51 µM and 0.432 µM | 2.12 µM and 1.33 µM and > 10 µM | 0.992 µM and 0.528 µM and 2.35 µM | > 10
9 | CCC(OC(C)=O)C(CC(C)N(C)C)(c1ccccc1)c1ccccc1 (stereo not drawn) | > 10 µM | – | – | –
10 | CN1CCC23CCCCC2C1Cc1ccc(O)cc13 (stereo not drawn) [17-methyl-17-azatetracyclo[7.5.3.0^{1,10}.0^{2,7}]heptadeca-2(7),3,5-trien-4-ol] | 0.34 µM and 1.21 µM | – | 0.401 µM and 0.0863 µM | –
11 | O=C1CC[C@@]2(O)[C@H]3Cc4ccc(O)c5c4[C@@]2(CCN3CC2CC2)[C@H]1O5 [(1S,5R,13R,17S)-4-(cyclopropylmethyl)-10,17-dihydroxy-12-oxa-4-azapentacyclo[9.6.1.0^{1,13}.0^{5,17}.0^{7,18}]octadeca-7(18),8,10-trien-14-one] | > 10 µM | – | > 10 µM | –
12 | COc1ccc2c3c1OC1C(O)C=CC4C(C2)N(C)CCC341 (stereo not drawn) [NSC_223652] | > 10 µM | – | > 10 µM | –
13 | C=CCN1CC[C@]23CCCCC2[C@H]1Cc1ccc(O)cc13 (stereo partly drawn) [Levallorphan] | – | – | > 10 µM and 7.95 µM | –
14 | CC1(C)SSC(C)(C)[C@@H](NC(=O)[C@@H](N)Cc2ccc(O)cc2)C(=O)NCC(=O)N[C@@H](Cc2ccccc2)C(=O)N[C@H]1C(=O)O [(4S,7S,13S)-13-[(2S)-2-amino-3-(4-hydroxyphenyl)propanamido]-7-benzyl-3,3,14,14-tetramethyl-6,9,12-trioxo-1,2-dithia-5,8,11-triazacyclotetradecane-4-carboxylic acid] | > 10 µM | – | > 10 µM | > 10
